Data published in patent publication US9573956B2, “Compounds as dual inhibitors of phosphodiesterases and histone deacetylases” (FUNDACIÓN PARA LA INVESTIGACIÓN MÉDICA APLICADA, priority 2013, dated 2017).
Marks after values point to notes of the source that are not given here.

Tests used:
[1] = biological target: T1, PDE5A (Homo sapiens, UniProt O76074); experiment: PDE enzyme activity assay (HTRF cGMP), PDE5A; format: biochemical; settings: recombinant enzyme; read-out: PDE5A1 inhibition (IC50)
T1 construct: they are full-length with N-terminal GST tag; GST (N); purchased BPS Biosciences 60050; host or cells: baculovirus infected Sf9 cells

[2] = biological target: T2, PDE9A isoform b (Homo sapiens, UniProt O76083); experiment: PDE enzyme activity assay (HTRF cGMP), PDE9A; format: biochemical; settings: recombinant enzyme; read-out: PDE9A inhibition (IC50)
T2 construct: they are full-length with N-terminal GST tag; GST (N); purchased BPS Biosciences 60090; host or cells: baculovirus infected Sf9 cells

[3] = biological target: HDAC1 (Homo sapiens, UniProt Q13547); experiment: HDAC enzyme activity assay (fluorogenic substrate), HDAC1; format: biochemical; settings: recombinant enzyme; read-out: HDAC1 inhibition (IC50)
[4] = biological target: T3, HDAC2 (Homo sapiens, UniProt Q92769); experiment: HDAC enzyme activity assay (fluorogenic substrate), HDAC2; format: biochemical; settings: recombinant enzyme; read-out: HDAC2 inhibition (IC50)
T3 construct: NM_001527; Cat. #50002) is full-length with C-terminal his tag; His (C); purchased BPS Biosciences 50002; host or cells: baculovirus infected Sf9 cells

[5] = biological target: T4, HDAC3 (Homo sapiens, UniProt O15379); experiment: HDAC enzyme activity assay (fluorogenic substrate), HDAC3; format: biochemical; settings: recombinant enzyme; read-out: HDAC3 inhibition (IC50)
T4 construct: is full-length with C-terminal his tag and human NCOR2, N-terminal GST tag; His (C); purchased BPS Biosciences 50003; host or cells: baculovirus infected Sf9 cells

[6] = biological target: T5, HDAC6 (Homo sapiens, UniProt Q9UBN7); experiment: HDAC enzyme activity assay (fluorogenic substrate), HDAC6; format: biochemical; settings: recombinant enzyme; read-out: HDAC6 inhibition (IC50)
T5 construct: BC069243; Cat. #50006) is full-length with N-terminal GST tag; GST (N); purchased BPS Biosciences 50006; host or cells: baculovirus infected Sf9 cells
T5 sequence (Q9UBN7 1-1215): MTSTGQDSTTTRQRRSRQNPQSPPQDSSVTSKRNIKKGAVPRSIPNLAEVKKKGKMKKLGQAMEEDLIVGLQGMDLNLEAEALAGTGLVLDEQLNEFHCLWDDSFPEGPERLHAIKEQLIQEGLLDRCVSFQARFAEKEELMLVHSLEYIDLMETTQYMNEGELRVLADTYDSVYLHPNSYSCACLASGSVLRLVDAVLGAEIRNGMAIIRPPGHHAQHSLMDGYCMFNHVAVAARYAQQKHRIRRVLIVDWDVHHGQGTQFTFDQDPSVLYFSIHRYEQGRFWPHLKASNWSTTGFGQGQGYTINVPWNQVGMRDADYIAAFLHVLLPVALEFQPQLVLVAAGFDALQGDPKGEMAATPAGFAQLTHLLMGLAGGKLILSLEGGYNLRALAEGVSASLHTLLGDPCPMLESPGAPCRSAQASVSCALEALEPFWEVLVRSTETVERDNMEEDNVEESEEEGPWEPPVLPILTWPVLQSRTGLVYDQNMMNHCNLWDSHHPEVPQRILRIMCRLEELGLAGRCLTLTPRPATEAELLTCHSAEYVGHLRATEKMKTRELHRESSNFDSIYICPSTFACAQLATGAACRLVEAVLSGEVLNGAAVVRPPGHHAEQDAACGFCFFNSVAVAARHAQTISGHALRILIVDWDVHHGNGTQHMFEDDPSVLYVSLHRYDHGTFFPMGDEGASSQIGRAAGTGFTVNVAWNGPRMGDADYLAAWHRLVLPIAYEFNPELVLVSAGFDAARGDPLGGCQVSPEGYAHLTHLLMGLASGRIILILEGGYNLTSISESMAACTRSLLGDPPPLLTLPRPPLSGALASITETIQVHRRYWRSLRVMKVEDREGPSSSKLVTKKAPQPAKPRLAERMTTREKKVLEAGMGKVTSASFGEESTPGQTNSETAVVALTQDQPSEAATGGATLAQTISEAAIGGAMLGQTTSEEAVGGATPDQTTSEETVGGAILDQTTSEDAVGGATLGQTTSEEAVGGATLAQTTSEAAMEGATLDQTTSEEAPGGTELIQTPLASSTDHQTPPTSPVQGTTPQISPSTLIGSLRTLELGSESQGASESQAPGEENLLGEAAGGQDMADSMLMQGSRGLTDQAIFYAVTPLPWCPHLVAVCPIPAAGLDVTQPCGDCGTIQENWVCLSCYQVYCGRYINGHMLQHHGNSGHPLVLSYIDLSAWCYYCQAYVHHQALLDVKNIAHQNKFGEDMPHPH

[7] = tested on: pCREB; experiment: PDE activity in wild type primary neurons (Western blot pCREB); format: cell-based; settings: Mus musculus, Neuron, 0.5 h, 30 min, EC50 = 50% increase in pCREB over basal
[8] = tested on: acetylated histone 3 at Lys9 (AcH3K9); experiment: HDAC activity in wild type primary neurons (Western blot AcH3K9); format: cell-based, mouse; settings: Mus musculus, Neuron, 0.5 h, 30 min, EC50 = 50% increase in AcH3K9 over basal, read-out: AcH3 (EC50)
[9] = tested on: pCREB; experiment: In-vivo activity, hippocampus of wild type mice: pCREB; set-up: species or system mouse; settings: i.p. 40 mg/kg, hippocampus one hour later
Procedure: (§1) To determine the ability of the compounds to inhibit HDAC and PDE in the brain, the compound was administered to wild type mice by i.p. at a dose of 40 mg/kg (n=3). Another group of animals received the vehicle (1/1/8, v:v:v, DMSO/Tween 20/saline). One hour later, mice were sacrificed by cervical dislocation and their hippocampus was quickly dissected from the brains.
(§2) Total tissue homogenates were obtained by homogenizing the hippocampus in a cold lysis buffer with protease inhibitors (0.2 M NaCl, 0.1 M HEPES, 10% glycerol, 200 mM NaF, 2 mM Na4P2O7, 5 mM EDTA, 1 mM EGTA, 2 mM DTT, 0.5 mM PMSF, 1 mM Na3VO4 and Complete Protease Inhibitor Cocktail, Roche Diagnostics). The homogenate was then centrifuged at 14,000×g at 4° C. for 20 min and the supernatant aliquoted and stored at −80° C. Total protein concentrations were determined using the BioRad Bradford protein assay (BioRad Laboratories). Protein samples were analyzed as described in the “in vitro” section.

[10] = tested on: AcH3; experiment: In-vivo activity, hippocampus of wild type mice: AcH3; set-up: species or system mouse; settings: i.p. 40 mg/kg, hippocampus one hour later
Procedure: as §1, §2

[11] = Pharmacokinetics, plasma and brain concentrations in wild type mice; format: in vivo; settings: mouse, ip
Procedure: Plasma and brain samples for measuring compounds concentrations were collected at predetermined times from four wild type mice per point. Three time points were measured: 0.25, 0.5 and 1.0 hour. Compounds concentration was measured using a Xevo-TQ MS triple quadropole mass spectrometer with an electrospray ionization (ESI) source and an Acquity UPLC (Waters, Manchester, UK).
[…]. Compounds were injected as a single intraperitoneal injection. Animals were killed by decapitation.
Plasma. Blood was collected into tubes containing EDTA and plasma was collected via centrifugation (4° C., 13200 rpm, 5 min) and stored at −80° C. until analysis.
Brain. Brains were collected immediately after mice death. The brains were excised, weighed and frozen at −80° C. until further process for analysis.
Chromatographic separation was performed by gradient elution at 0.4 mL/min using an Acquity UPLC BEH C18 column (100×2.1 mm, 1.7 μm particle size; Waters). The mobile phase consisted of A: water with 0.1% formic acid, B: methanol with 0.1% formic acid. After 1.5 min at the initial condition of 95% A, solvent B was increased from 5% to 100% over 2 min, maintained at 100% for 1.5 min, then a linear gradient to initial conditions was applied for 0.1 min and maintained for 3.4 minutes to re-equilibrate the column, giving a cycle time of 8.5 min. The autosampler temperature was set at 10° C. and column temperature at 45° C.
Compounds were monitored using a triple quadrupole mass spectrometer equipped with an electrospray ionization interface. For detection and quantification, a capillary voltage of 3.5 kV and a cone voltage of 38 V were used. Source and desolvation temperatures were 150° C. and 650° C., respectively. Ultra-high purity nitrogen was used for cone gas (75 L h^−1) and desolvation gas (1000 L h^−1). The electrospray ionization operated in the positive mode, and the collision gas used was ultra-pure argon at a flow rate of 0.15 mL min^−1.
Quantification was achieved by external calibration using matrix-matched standards. Concentrations were calculated using a weighted least-squares linear regression (W=1/×). […]. The mixture was then agitated for 10 min and centrifuged at 13200 rpm for 5 min at 4° C. The resulting supernatants were transferred to a Ostro plate (Waters, Manchester, UK), designed to remove phospholipids. The resulting eluents were evaporated at 37° C. under a stream of nitrogen. Residues were dissolved in 75 μL of a mixture of methanol and water (50:50, v:v). A 10-uL aliquot of the resulting solution was injected onto the LC-MS/MS system for analysis. Frozen plasma samples were thawed at room temperature, vortexed thoroughly and subjected to the above described extraction procedure. Brain samples were thawed unassisted at room temperature and homogenized using a Branson 250 ultrasonic sonifier (Branson, Danbury, Conn., USA). When homogenized, 75 mg were weighted and extracted as described previously.
Concentration values obtained from the LC-MS/MS analyses are described in Table 4.

[12] = biological target: T6, PDE4A1 (Homo sapiens, UniProt P27815); experiment: PDE enzyme activity assay (HTRF cGMP), PDE4A1; format: biochemical; settings: recombinant enzyme; read-out: PDE4A1 inhibition (IC50)
T6 construct: they are full-length with N-terminal GST tag; GST (N); purchased BPS Biosciences 60040; host or cells: baculovirus infected Sf9 cells
T6 sequence (P27815 1-647 isoform P27815-4): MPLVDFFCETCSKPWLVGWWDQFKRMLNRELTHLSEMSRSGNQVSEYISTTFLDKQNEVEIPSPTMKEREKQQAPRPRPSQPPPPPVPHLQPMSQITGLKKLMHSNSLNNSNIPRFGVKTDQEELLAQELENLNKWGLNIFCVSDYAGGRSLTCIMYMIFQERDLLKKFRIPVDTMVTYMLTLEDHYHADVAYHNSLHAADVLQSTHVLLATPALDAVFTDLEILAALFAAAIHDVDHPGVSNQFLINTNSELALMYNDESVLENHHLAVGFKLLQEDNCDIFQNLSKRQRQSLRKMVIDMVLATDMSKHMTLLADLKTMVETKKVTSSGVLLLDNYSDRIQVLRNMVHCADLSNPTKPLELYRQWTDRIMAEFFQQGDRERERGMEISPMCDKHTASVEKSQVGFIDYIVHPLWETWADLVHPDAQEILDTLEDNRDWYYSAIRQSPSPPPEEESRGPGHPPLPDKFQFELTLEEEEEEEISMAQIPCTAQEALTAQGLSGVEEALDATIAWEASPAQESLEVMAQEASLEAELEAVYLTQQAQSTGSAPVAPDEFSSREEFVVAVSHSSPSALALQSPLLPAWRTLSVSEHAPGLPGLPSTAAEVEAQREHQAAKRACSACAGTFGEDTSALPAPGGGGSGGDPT

T3 sequence (Q92769 whole entry): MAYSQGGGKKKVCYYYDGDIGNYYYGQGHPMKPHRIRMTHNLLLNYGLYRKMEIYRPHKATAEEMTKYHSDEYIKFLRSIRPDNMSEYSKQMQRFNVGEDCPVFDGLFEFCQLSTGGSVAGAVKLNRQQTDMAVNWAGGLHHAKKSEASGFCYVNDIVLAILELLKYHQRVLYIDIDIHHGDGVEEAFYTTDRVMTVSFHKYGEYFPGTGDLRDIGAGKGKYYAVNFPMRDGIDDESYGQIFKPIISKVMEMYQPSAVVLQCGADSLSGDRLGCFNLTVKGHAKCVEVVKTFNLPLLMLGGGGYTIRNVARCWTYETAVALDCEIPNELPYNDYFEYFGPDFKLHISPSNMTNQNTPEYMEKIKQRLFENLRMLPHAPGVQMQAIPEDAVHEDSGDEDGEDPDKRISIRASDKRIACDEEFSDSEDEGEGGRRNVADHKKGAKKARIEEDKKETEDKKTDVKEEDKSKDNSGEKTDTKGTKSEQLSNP
Chain of HDAC1 (Q13547 whole entry): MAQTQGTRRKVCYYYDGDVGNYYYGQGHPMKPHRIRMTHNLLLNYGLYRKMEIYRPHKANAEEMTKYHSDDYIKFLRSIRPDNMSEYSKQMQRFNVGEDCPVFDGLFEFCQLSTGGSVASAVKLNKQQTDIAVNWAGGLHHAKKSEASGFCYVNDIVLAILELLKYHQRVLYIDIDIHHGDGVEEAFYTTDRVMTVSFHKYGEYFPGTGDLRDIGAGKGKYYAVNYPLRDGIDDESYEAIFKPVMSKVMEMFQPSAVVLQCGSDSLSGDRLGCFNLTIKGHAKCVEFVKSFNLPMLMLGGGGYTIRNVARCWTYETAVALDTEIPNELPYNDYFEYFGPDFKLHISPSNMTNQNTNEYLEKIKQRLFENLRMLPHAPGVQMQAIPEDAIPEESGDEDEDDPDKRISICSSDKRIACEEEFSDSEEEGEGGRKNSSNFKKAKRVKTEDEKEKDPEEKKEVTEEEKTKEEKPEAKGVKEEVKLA
T4 sequence (O15379 whole entry): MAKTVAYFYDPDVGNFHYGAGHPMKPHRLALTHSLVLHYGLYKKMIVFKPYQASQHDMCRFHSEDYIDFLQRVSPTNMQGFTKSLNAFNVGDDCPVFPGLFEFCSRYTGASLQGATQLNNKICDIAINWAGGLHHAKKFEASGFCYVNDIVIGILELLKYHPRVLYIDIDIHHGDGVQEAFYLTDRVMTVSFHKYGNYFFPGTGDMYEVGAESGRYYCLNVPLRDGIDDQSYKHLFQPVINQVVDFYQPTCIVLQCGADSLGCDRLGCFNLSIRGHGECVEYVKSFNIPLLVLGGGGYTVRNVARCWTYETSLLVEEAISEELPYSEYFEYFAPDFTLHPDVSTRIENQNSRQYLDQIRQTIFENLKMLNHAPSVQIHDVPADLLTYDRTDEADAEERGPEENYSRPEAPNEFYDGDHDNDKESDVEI
T4 sequence (Q9Y618 395-489 partner limits assumed): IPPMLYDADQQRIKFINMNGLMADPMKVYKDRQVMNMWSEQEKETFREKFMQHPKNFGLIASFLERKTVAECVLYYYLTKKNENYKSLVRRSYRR
T2 sequence (O76083 1-533 isoform O76083-2): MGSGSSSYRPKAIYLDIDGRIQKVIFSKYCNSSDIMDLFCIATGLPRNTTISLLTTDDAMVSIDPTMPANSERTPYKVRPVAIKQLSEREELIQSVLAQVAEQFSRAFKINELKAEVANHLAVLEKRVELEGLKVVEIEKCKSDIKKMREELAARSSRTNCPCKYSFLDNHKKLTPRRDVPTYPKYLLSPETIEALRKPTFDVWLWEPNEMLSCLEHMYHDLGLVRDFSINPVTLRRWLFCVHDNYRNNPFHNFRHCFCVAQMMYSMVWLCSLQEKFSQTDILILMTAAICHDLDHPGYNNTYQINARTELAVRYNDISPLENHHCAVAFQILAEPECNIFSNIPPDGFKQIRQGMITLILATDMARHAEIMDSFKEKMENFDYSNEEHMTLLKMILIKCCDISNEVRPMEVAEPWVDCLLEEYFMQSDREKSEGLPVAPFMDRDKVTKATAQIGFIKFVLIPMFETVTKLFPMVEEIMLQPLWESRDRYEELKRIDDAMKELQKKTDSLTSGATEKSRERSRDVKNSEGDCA

Row | IC50 [1] [nM] | IC50 [2] [nM] | IC50 [3] [nM] | IC50 [4] [nM] | IC50 [5] [nM] | IC50 [6] [nM] | EC50 [7] [nM] | EC50 [8] [nM] | CMax (brain; nmol/Kg) ([11]; in vivo, 40 mg/kg) | Tmax ([11]; dosage 40 mg/Kg, single intraperitoneal injection, wild type mice, time of maximum concentration in brain) [min] | Cmax ([11]; plasma, dosage 40 mg/Kg, single intraperitoneal injection, wild type mice, at tMax, (Standard Deviation)) [nM] | IC50 [12] [nM] | Compound | pCREB, increment in biological response vs basal [9] | AcH3, increment in biological response vs basal [10]
1 | < 10 | 1000 to 10000 | 10 to 1000 | 10 to 1000 | 10 to 1000 | 10 to 1000 | – | – | – | – | – | – | CCCc1nn(C)c2c(=O)[nH]c(-c3cc(S(=O)(=O)NC4CCN(c5ncc(C(=O)NO)cn5)CC4)ccc3OCC)nc12 [Example 1-07] | – | –
2 | 10 to 1000 | 1000 to 10000 | 10 to 1000 | – | – | – | 10 to 1000 | 10 to 1000 | 71.3 (19.5)^c nmol/Kg | 15 | 1880 | – | CCCc1nn(C)c2c(=O)[nH]c(-c3cc(OC4CCN(c5ncc(C(=O)NO)cn5)CC4)ccc3OCC)nc12 [Example 1-12] | +++ (basal×2≦(+++)<basal×3) | ++ (basal×1≦(++)<basal×2)
3 | < 10 | – | 10 to 1000 | 10 to 1000 | 10 to 1000 | 1000 to 10000 | – | – | – | – | – | – | CCCc1nn(C)c2c(=O)[nH]c(-c3cc(CC4CCN(c5ncc(C(=O)NO)cn5)CC4)ccc3OCC)nc12 [Example 1-24, 2-[4-[[4-ethoxy-3-(1-methyl-7-oxo-3-propyl-6H-pyrazolo[4,3-d]pyrimidin-5-yl)phenyl]methyl]-1-piperidyl]pyrimidine-5-carbohydroxamic acid] | – | –
4 | < 10 | – | 10 to 1000 | 10 to 1000 | 10 to 1000 | 10 to 1000 | 1000 to 10000 | 10 to 1000 | – | – | – | – | CCCc1nn(C)c2c(=O)[nH]c(-c3cc(N(C)C4CCN(c5ncc(C(=O)NO)cn5)CC4)ccc3OCC)nc12 [Example 1-25] | – | –
5 | 1000 to 10000 | – | – | – | – | – | – | – | – | – | – | 1000 to 10000 | C[C@@H]1CN(Cc2ncccn2)C[C@H]1c1nc2c(cnn2C2CCOCC2)c(=O)[nH]1 [PF-4447943, 6-[(3S,4S)-4-methyl-1-(pyrimidin-2-ylmethyl)pyrrolidin-3-yl]-1-(tetrahydro-2H-pyran-4-yl)-1H-pyrazolo[3,4-d]pyrimidin-4(5H)-one, reference compound] | – | –
6 | > 10000 | > 10000 | – | – | – | – | – | – | – | – | – | – | O=C(CCCCCCC(=O)Nc1ccccc1)NO [Vorinostat, reference compound] | N.E. (N.E. means No Effect) | +++ (basal×2≦(+++)<basal×3)
